# Key:
# human estrogen receptor = molecular target: T1, human estrogen receptor (Homo sapiens, UniProt P03372); assay: 2× VIT ERE Infection Assay (infection luciferase activity); assay type: cell-based; conditions: 24 h, read-out: Infection Luciferase Activity, 1 uM
# T1 construct: expressed in transfected cells; host or cells: CHO (Chinese Hamster Ovary) cells, stably transfected
# Method: 48 h prior to treatment the growth medium was replaced with DMEM lacking phenol red+10% dextran coated charcoal stripped FBS (treatment medium).
# Reporter DNA (Promega plasmid pGL2 containing two tandem copies of the vitellogenin ERE in front of the minimal thymidine kinase promoter driving the luciferase gene) was combined with the B-galactosidase expression plasmid pCH110 (Pharmacia) and carrier DNA (pTZ18U) in the following ratio:
# 20 uL of this mixture was added to each well of cells and remained on the cells for 16 h. […] Each treatment condition was performed on 8 wells (n=8) which were incubated for 24 h prior to the luciferase assay.
# After 24 h exposure to compounds, the media was removed and each well washed 2× with 125 uL of PBS lacking Mg^++ and Ca^++. After removing the PBS, 25 uL of Promega lysis buffer was added to each well and allowed to stand at room temperature for 15 min, followed by 15 min at -80° C. and 15 min at 37° C.
# The luciferan substrate (Promega) was added in 100 uL aliquots to each well automatically by the luminometer and the light produced (relative light units) was read 10 seconds after addition.
# To the remaining 5 uL of lysate 45 uL of PBS was added. Then 50 uL of Promega B-galactosidase 2× assay buffer was added, mixed well and incubated at 37° C. for 1 hour. A plate containing a standard curve (0.1 to 1.5 milliunits in triplicate) was set up for each experimental run. The plates were analyzed on a Molecular Devices spectrophotometric plate reader at 410 nm. The optical densities for the unknown were converted to milliunits of activity by mathematical extrapolation from the standard curve.
# The luciferase data was generated as relative light units (RLUs) accumulated during a 10 second measurement and automatically transferred to a JMP (SAS Inc) file where background RLUs were subtracted. The B-galactosidase values were automatically imported into the file and these values were divided into the RLUs to normalize the data. The mean and standard deviations were determined from a n=8 for each treatment.
# bone = conditions: in humans; cited from earlier work
# uterus = conditions: in vivo; cited from earlier work
# estrogen receptor = molecular target: T2, estrogen receptor (Homo sapiens, UniProt P03372); assay: In vitro Estrogen Receptor Binding Assay (competition with [3H]-17β-estradiol); conditions: compared with indenoindole #6
# T2 construct: expressed in transfected cells; host or cells: CHO cells overexpressing the receptor; cytosol (100,000 g supernatant)
# T2 sequence (P03372 1-595): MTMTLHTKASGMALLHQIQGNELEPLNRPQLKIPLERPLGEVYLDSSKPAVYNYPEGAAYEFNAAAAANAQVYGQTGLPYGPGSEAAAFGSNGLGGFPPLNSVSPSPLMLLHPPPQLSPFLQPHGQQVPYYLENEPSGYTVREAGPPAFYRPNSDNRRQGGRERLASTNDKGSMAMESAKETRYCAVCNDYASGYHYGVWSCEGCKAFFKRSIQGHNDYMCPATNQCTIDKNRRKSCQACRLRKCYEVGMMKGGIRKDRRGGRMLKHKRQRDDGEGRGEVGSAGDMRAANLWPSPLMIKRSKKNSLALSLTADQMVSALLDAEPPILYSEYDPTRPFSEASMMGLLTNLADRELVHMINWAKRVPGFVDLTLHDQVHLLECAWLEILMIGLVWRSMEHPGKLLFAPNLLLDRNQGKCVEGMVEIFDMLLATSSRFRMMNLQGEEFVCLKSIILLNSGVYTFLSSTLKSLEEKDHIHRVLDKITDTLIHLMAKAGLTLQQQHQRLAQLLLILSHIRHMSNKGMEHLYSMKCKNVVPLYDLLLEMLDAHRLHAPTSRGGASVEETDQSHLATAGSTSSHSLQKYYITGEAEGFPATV
# Method: CHO cells overexpressing the estrogen receptor were grown in 150 mm^2 dishes in DMEM+10% dextran coated charcoal, stripped fetal bovine serum. The plates were washed twice with PBS and once with 10 mM Tris-HCl, pH 7.4, 1 mM EDTA. Cells were harvested by scraping the surface and then the cell suspension was placed on ice. Cells were disrupted with a hand-held motorized tissue grinder using two, 10-second bursts. The crude preparation was centrifuged at 12,000 g for 20 minutes followed by a 60 minute spin at 100,000 g to produce a ribosome free cytosol. The cytosol was then frozen and stored at -80° C. […]
# The competition assay was performed in a 96-well plate (polystyrene*) which binds <2.0% of the total input [^3 H]-17β-estradiol and each data point was gathered in triplicate. […] Samples were counted to 2% or 10 minutes, whichever occurs first. […] 17βestradiol, wells containing radioactivity and cytosol, but not processed with charcoal were included to quantitate amounts of available isotope. Also, wells containing radioactivity but no cytosol were processed with charcoal to estimate unremovable DPM of [^3 H] […]
# Counts per minute (CPM) of radioactivity were automatically converted to disintegrated per minute (DPM) by the Beckman LS 7500 Scintillation Counter using a set of quenched standards to generate a H# for each sample. […]
# ovariectomized rat = conditions: cited from earlier work
SMILES,activation at 1 µM (human estrogen receptor) [%],bind to the ER receptor (comparison in words) (estrogen receptor),further results
"COc1ccc2c(c1)Cc1c-2n(Cc2ccc(OCCN3CCCCC3)cc2)c2ccc(O)cc12 [Cmpd. 6, 2-Methoxy-5-[4-(2-piperidin-1-yl-ethoxy)-benzyl]-5,10-dihydro-indeno[1,2-b]indol-8ol]",-2,–,–
CC/C(=C(\c1ccccc1)c1ccc(OCCN(C)C)cc1)c1ccccc1 [Tamoxifen],–,–,effect on the bone (bone): estrogen agonist-like effect on the bone; agonism in the uterus (uterus): partial agonist in the uterus
"COc1ccc2c(c1)CCc1c-2n(Cc2ccc(OCCN3CCCCC3)cc2)c2ccc(O)cc12 [Cmpd. 21, 3-Methoxy-11-[4-(2-piperidin-1-yl-ethoxy)-benzyl]-5,11-dihydro-6H-benzo[a]carbazol-8-ol]",-7,bind better to the ER receptor than the indenoindole #6,–
O=C(c1ccc(OCCN2CCCCC2)cc1)c1c(-c2ccc(O)cc2)sc2cc(O)ccc12 [Raloxifene],–,–,ability to spare bone (ovariectomized rat): maintaining the ability to spare bone; stimulation of uterine growth (ovariectomized rat; compared with Tamoxifen): stimulate uterine growth in the ovariectomized rat to a lesser extent than Tamoxifen
"COc1ccc2c(c1)CCc1c-2n(Cc2ccc(OCCN3CCCCCC3)cc2)c2ccc(O)cc12 [Cmpd. 22, 11-[4-(2-Azepan-1-yl-ethoxy)-benzyl]-3-methoxy-5,11-dihydro-6H-benzo[a]carbazol-8-ol]",1,bind better to the ER receptor than the indenoindole #6,–
